# Results published in a melting point compilation (Tetko et al.; mined from patent text by program, amines drawn as free bases though some values may be those of a salt).
row,SMILES,melting point
1,CCCCn1ccc(-c2ccc(C(=O)N3Cc4cccn4Cc4ccccc43)cc2)n1,122 to 123 °C
2,COc1ccc(CCC(=O)NCc2ccccc2)cc1,92 to 94 °C
3,Cc1cc(NC(=O)C(C)(O)COc2ccccc2F)ccc1[N+](=O)[O-] (stereo unspecified),94 to 96 °C
4,O=C(Nc1ccc(OC(F)(F)F)cc1)NC1CCN(C(=O)C(F)(F)F)CC1,150 to 154 °C
5,CN1CCCC1c1ccc(CCNC(=O)c2ccc(Br)cc2)cc1 (stereo unspecified),133 to 134 °C
6,CC(C)(C)c1ccc(S(=O)(=O)N2c3ccccc3C[C@H]2C(=O)Cl)cc1,148 °C
7,CC(=O)NC1CCCCc2sccc21 (stereo unspecified),179 to 180 °C
8,CCN1C(=O)C(C)(C)C(=O)N(C)c2cc(CN(CCn3ccc4oc(C)cc4c3=O)Cc3nc(C)n4ccccc34)ccc21,104 to 109 °C
9,O=S(=O)(Nc1cc(F)ccc1F)c1ccccc1,115 °C
10,CCCCS(=O)(=O)Nc1ccc(C(=O)c2ccccc2)cc1,76 to 80 °C
11,Cc1n[nH]c(=O)n1-c1ccc([N+](=O)[O-])cc1,226 °C
12,CCCc1c(COc2ccc(C(=O)c3cccc(-c4nnn[nH]4)c3)cc2)ccc(C(C)=O)c1O,208 to 214 °C
13,CCCCCCCCCCCCCCCCCCOc1ccc(C(=O)C(=O)O)cc1,78 to 80 °C
14,COC(=O)NC1=NCC(c2ccc(I)cc2)CN1 (stereo unspecified),209 to 210 °C
15,O=C(Nc1cccc(F)c1F)c1ccc(-n2nc(C(F)(F)F)cc2C2CC2)c(F)c1,175 to 180 °C
16,O=C(c1ccccc1)n1c(=O)c(C(F)(F)F)cn(C2CC(O)C(CO)O2)c1=O (stereo unspecified),144 to 146 °C
17,COc1ccc(Cl)c(OC)c1C(=O)O,132 to 133 °C
18,CC1=CCC2(C)C(CCC3C4CCC(O)C4(C)CCC32)C1 (stereo unspecified),128 to 130 °C
19,CC(=O)C(C#N)c1cccc(Br)c1 (stereo unspecified),96 to 100 °C
20,Nc1ccc(S(=O)(=O)CCO)cc1O,115 to 117 °C
21,CCCCc1ccc(C(=O)NCCN(C(C)=O)[C@@H](CCC(N)=O)C(=O)O)nc1,156 to 158 °C
22,CCOC(=O)Cn1c(=O)c2cc(Cc3ncc[nH]3)ccc2n(Cc2ccc(Cl)c(Cl)c2)c1=O,201 to 202 °C
23,COc1ccc([N+](=O)[O-])c2c1CCC(C(=O)Nc1ccc(N3CCOCC3)cc1)C2 (stereo unspecified),251 to 253 °C
24,Cc1ccc(S(=O)(=O)NC(=N)CCN2CCOC2=O)cc1,129 to 134 °C
25,N#Cc1cnc2cc(F)c(O)cc2c1Cl,> 250 °C
26,N#CC(=Cc1ccsc1)C(=O)O,211 °C

row,SMILES,melting point
1,CC(C#Cc1ccc(Oc2ccc(F)cc2)s1)N(O)C(N)=O (stereo unspecified),149 to 150 °C
2,CC1CCN(c2nc(Nc3cc(C4CC4)n[nH]3)c3ccccc3n2)CC1,190 °C
3,O=C(CC(c1ccccc1)c1ccccc1)N1CCN(CCc2cc3ccccc3o2)CC1,123 to 124 °C
4,O=C(O)c1ccn2c1C(C(=O)O)CCC2 (stereo unspecified),236 to 237 °C
5,CCOC(=O)c1c2ccc(Cl)cc2c(-c2ccccc2)n1CCN(CC)CC,75 to 77 °C
6,CCOC(=O)c1c(O)c2cccnc2n(C)c1=O,158 to 160 °C
7,Cn1c(=O)c(C(=O)O)nc2cc(F)c([N+](=O)[O-])cc21,173 to 175 °C
8,Nc1c(-c2ccccc2)c(=O)[nH]c2cc(Cl)ccc12,337 to 338 °C
9,Cc1ccnc(NC(=O)c2nnc3ccccc3c2O)c1,339 to 341 °C
10,CC(C)(C)OC(=O)Nc1ccc2nc(N3CCOCC3)nn2c1,166 °C
11,CCNC(=O)c1cccc(C2(c3ccc(OC(F)(F)F)cc3)N=C(N)N3CCCN=C32)c1 (stereo unspecified),129 to 136 °C
12,CC(=O)OCOC(=O)COC(=C1C(=O)N(C(N)=O)c2cc(Cl)c(F)cc21)c1cccs1,176 to 177 °C
13,NC(=O)N(O)CCNC(=O)c1cccc(Oc2ccccn2)c1,159 to 160 °C
14,CCC[C@@H]([C@@H](CC(C)C)C(=O)N[C@@H](CCCNCN=N[N+](=O)[O-])C(=O)Nc1nccs1)N(O)C=O,130 to 136 °C
15,NS(=O)(=O)c1ccc(NN=C2C(=O)Nc3ccc(C(=O)NCc4cccnc4)cc32)cc1,211 to 215 °C
16,O=CNC(Cl)C(Cl)(Cl)CCl (stereo unspecified),55 to 57 °C
17,OCc1c[nH]c(=S)n1[C@H]1CCc2cc(Cl)c(Cl)cc2C1,247 to 248 °C
18,CN1C(c2ccc(Br)cc2)C2C(=O)N(Cc3ccc4c(c3)OCO4)C(=O)C2C1(C)C (stereo unspecified),109 to 111 °C
19,Nc1ccc(NC(=O)c2ccc(N)cc2O)cc1,235 to 238 °C
20,CCOC(=O)N=C(NC(=O)Nc1ccc(C)cc1)SCC,110 to 112 °C
21,Clc1ccc(Nc2nnc(Cc3ccncc3)c3cccnc23)cc1,196 to 197 °C
22,CCCCCc1ccc(-c2ccc(CCc3ccc(F)cc3)cc2)cc1,60 °C
23,NS(=O)(=O)c1ccc(-c2[nH]c3ccccc3c2-c2ccc(Cl)cc2)cc1,298 to 300 °C
24,CC(=O)NC1(c2ccccc2)CCN(CC[C@@H](c2ccc(Cl)c(Cl)c2)[C@@H](O)c2cnnn2-c2ccccc2)CC1 (racemic),125 to 128 °C
25,CC(C)(C)OC(=O)N1CC=C(c2c[nH]c3ccc([N+](=O)[O-])cc23)CC1,210 to 212 °C
